Measured values reported in patent US8778948B2, “Substituted phenylpiperazinyl aralkylalcohol derivatives, pharmaceutical compositions containing such derivatives and uses thereof” (priority 2008, dated 2014).
Structures can show the parent of a compound that is named as a salt. Marks after values point to notes of the source that are not given here.

Tests used:
[1] = tested on: Kunming mice; test: Acetic acid-induced abdominal writhing test in mice; type: in vivo; settings: 1 h before 0.7% acetic acid i.p.
Description: Acetic Acid-Induced Abdominal Writhing Test in Mice
Kunming mice, SPF KM mice purchased from […] SLAC LABORATORY ANIMAL CO. LTD and kept in normal environment.
(§1) 2. Modes of Administration
The compounds were dissolved in water for injection at a concentration of 4 mg/ml, 2 mg/ml and 1 mg/ml and were given intragastrically to animals.
(§2) Three different doses (10, 20, and 40 mg/kg) were administered to the test groups.
Aspirin was used as a positive control and acetic acid writhing test was used.
30 mice (half male and half female) weighing 18-23 g were divided into five groups, including negative control group, positive control group, low dose group, medium dose group and high dose group:
Mice in test group received test drug (10 mg/kg, 20 mg/kg, 40 mg/kg) via intragastric administration. Negative control group received physiological saline (20 ml/kg) via oral administration. Positive control group received aspirin (200 mg/kg) via oral administration. One hour later, each group received 0.7% acetic acid 10 ml/kg intraperitoneally. Five minutes later, the number of writhes was counted within the subsequent 15 min period; inhibition percentage of writhing response in each test group was calculated by the following equation: […]

[2] = tested on: Kunming mice; test: Hot-plate test in mice; type: in vivo; settings: 1 h post dose, hot plate 55° C.
Description: Kunming mice, SPF KM mice were purchased from […] SLAC LABORATORY ANIMAL CO. LTD and kept in normal environment.
as §1
The compounds were dissolved in water for injection at a concentration of 4 mg/ml, 2 mg/ml and 1 mg/ml and were given subcutaneously to animals.
as §2
Morphine was used as a positive control and hot plate test was used.
30-40 mice (half male and half female) weighing 18-23 g were used. First, each mouse was placed on a hot plat at 55° C. to determine basic pain threshold for 2-3 times. Those animals with basic pain threshold of 5-30 s were qualified, unqualified mice were not used. 30 qualified mice were divided into five groups, including negative control group, positive control group, low-dose group, medium-dose group and high-dose group:
Mice in test groups received test sample solution (10 mg/kg, 20 mg/kg, 40 mg/kg) via subcutaneous injection in the neck. Positive control group received subcutaneous injection of morphine (2 mg/kg). One hour later, pain threshold values were determined for mice in each group as post-drug pain threshold. Percentage increase in pain threshold was calculated according to the following equation: […]

[3] = target: opioid receptor subtype κ (Homo sapiens, UniProt P41145); test: biochemical; type: binding; settings: test concentration 10^−5 mol/L; [3H]Diprenorphine 0.4 nM; mean±SE; read-out: Inhibition percentage of competitive binding, κ
Sequence of opioid receptor subtype κ (P41145 whole entry): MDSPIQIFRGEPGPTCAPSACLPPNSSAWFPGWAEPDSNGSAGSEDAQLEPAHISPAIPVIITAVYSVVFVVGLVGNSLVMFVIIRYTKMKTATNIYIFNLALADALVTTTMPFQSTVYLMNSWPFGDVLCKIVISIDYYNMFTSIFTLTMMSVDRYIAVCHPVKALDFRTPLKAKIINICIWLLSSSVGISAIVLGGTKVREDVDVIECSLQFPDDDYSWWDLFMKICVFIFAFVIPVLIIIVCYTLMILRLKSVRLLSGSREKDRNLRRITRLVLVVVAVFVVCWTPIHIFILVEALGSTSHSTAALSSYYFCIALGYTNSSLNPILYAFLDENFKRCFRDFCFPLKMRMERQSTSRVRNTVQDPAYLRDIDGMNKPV
Description: (§3) Competitive Binding Between the Compounds and Opioid Receptor Subtypes μ, δ, κ
(§4) The respective test compounds were added to the sample tube (final concentration of 10^−5M), incubated at 37° C. for 30 min and placed in ice bath to terminate the reaction. The reaction mixture was filtered through GF/C(Whatman) glass fiber filter by vacuum filtration on a Millipore sample collector. The filter was washed three times with 50 mM Tris-HCl (pH7.4), each with 4 ml; dried and transferred into a 0.5 ml Eppendorf tube, in which 0.5 ml lipophilic scintillation fluid was added. Radioactivity was detected by a LS6500 scintillation counter. Each concentration had three duplicate test tubes and each separate test was repeated 3 to 4 times.
(§5) Specific binding CMP value for each sample tube=overall binding CPM value for each sample tube-CPM value of non-specific binding tube. [Inhibition percentage of competitive binding between the test compound and different opioid receptor subtypes (%)=(100%−specific binding (CPM value) of sample tube/specific binding (CPM value) of solvent group×100%)]
(§6) Average was taken for each test drug from three duplicate tubes; each test was repeated two or more times.

[4] = target: opioid receptor subtype μ (Homo sapiens, UniProt P35372); test: biochemical; type: binding; settings: test concentration 10^−5 mol/L; [3H]Diprenorphine 0.4 nM; mean±SE; read-out: Inhibition percentage of competitive binding, μ
Sequence of opioid receptor subtype μ (P35372 whole entry): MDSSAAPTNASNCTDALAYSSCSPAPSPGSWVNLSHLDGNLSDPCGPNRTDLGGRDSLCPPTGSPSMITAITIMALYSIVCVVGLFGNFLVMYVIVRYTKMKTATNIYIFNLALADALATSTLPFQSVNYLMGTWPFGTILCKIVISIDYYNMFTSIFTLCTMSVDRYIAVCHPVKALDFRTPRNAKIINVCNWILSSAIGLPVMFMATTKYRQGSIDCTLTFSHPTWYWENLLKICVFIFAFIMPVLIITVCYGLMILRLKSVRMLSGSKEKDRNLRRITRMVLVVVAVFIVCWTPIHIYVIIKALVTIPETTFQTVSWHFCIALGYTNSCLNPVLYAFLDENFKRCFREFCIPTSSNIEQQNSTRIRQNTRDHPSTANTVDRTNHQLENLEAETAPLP
Description: as §3, §4, §5, §6

[5] = target: opioid receptor subtype δ (Homo sapiens, UniProt P41143); test: Competitive radioligand binding ([3H]Diprenorphine), opioid receptor subtype δ; settings: read-out: Inhibition percentage of competitive binding, δ
Sequence of opioid receptor subtype δ (P41143 whole entry): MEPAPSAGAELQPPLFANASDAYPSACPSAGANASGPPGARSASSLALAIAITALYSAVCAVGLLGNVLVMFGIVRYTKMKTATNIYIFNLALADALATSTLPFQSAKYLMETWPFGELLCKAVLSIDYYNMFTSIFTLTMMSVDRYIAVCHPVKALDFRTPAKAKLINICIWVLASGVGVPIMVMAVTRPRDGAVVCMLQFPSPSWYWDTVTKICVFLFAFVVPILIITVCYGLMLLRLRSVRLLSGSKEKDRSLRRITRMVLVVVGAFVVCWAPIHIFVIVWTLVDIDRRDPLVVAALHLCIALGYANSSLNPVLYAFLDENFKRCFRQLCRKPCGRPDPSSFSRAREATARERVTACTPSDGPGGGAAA
Description: as §3, §4, §5
Average was taken for each test drug from three duplicate tubes; each test was repeated two or more times. Data were presented as mean±SE and statistical comparison was made by ANOVA.

SMILES | Inhibition percentage of writhing response ([1]; 10 mg/kg Ig) | Inhibition percentage of writhing response ([1]; 20 mg/kg Ig) | Inhibition percentage of writhing response ([1]; 40 mg/kg Ig) | other results
COc1ccccc1N1CCN(C(C)C(O)c2ccc3[nH]c(=O)[nH]c3c2)CC1 (racemic) (as salt: hydrochloride) |  |  |  | melting point: 221 to 223 °C
CC(C(O)c1ccc2[nH]c(=O)sc2c1)N1CCN(c2cccc(C(F)(F)F)c2)CC1 (racemic) (as salt: hydrochloride) |  |  |  | melting point: 217 to 219 °C
COc1ccccc1N1CCN([C@@H](C)[C@H](O)c2ccc3c(c2)CC(=O)N3)CC1 (racemic) (as salt: hydrochloride) [IV-1, (1RS,2SR)-5-(1-hydroxy-2-(4-(2-methoxyphenyl)piperazin-1-yl)propyl)indolin-2-one] |  |  |  | melting point: 213 to 215 °C
C[C@H]([C@H](O)c1ccccc1)N1CCN(c2cccc(C(F)(F)F)c2)CC1 (racemic) [Compound I-2, (1RS,2RS)-1-phenyl-2-(4-(3-trifluoromethylphenyl)piperazinyl)-propan-1-ol] | 40.53% | 63.16 * % | 68.95 * % | 
C[C@@H]([C@H](O)c1ccccc1)N1CCN(c2cccc(Cl)c2)CC1 (racemic) [Compound I-3, (1RS,2SR)-1-phenyl-2-(4-(3-chlorophenyl)piperazinyl)-propan-1-ol] | 49.61% | 76.38 * % | 83.46 ** % | 
C[C@H]([C@H](O)c1ccccc1)N1CCN(c2cccc(Cl)c2)CC1 (racemic) [Compound I-4, (1RS,2RS)-1-phenyl-2-(4-(3-chlorophenyl)piperazinyl)-propan-1-ol] | 35.00% | 49.38 * % | 78.13 ** % | 
COc1ccc(N2CCN([C@@H](C)[C@H](O)c3ccccc3)CC2)cc1 (racemic) [Compound I-7, (1RS,2SR)-1-phenyl-2-(4-(4-methoxyphenyl)piperazinyl)-propan-1-ol] | 61.02% | 75.42 ** % | 70.34 * % | 
COc1ccc([C@@H](O)[C@H](C)N2CCN(c3ccccc3OC)CC2)cc1 (racemic) [Compound I-13, (1RS,2SR)-1-(4-methoxyphenyl)-2-(4-(2-methoxyphenyl)piperazinyl)-propan-1-ol] | 73.33 * % | 84.55 * % | 87.88 ** % | Percentage increase in pain threshold ([2]; 10 mg/kg S.c.): 16.19%; Percentage increase in pain threshold ([2]; 20 mg/kg S.c.): 74.59 * %; Percentage increase in pain threshold ([2]; 40 mg/kg S.c.): 142.41 ** %
COc1ccc([C@@H](O)[C@@H](C)N2CCN(c3ccccc3OC)CC2)cc1 (racemic) [Compound I-14, (1RS,2RS)-1-(4-methoxyphenyl)-2-(4-(2-methoxyphenyl)piperazinyl)-propan-1-ol] | 74.55 * % | 79.39 * % | 76.36% | 
C[C@@H]([C@H](O)c1ccc(NS(C)(=O)=O)cc1)N1CCN(c2cccc(C(F)(F)F)c2)CC1 (racemic) [Compound I-17, (1RS,2SR)-1-(4-methanesulfonamidophenyl)-2-(4-(3-trifluoromethylphenyl)piperazinyl)-propan-1-ol] |  |  |  | Percentage increase in pain threshold ([2]; 10 mg/kg S.c.): 59.02%; Percentage increase in pain threshold ([2]; 20 mg/kg S.c.): 147.36 ** %; Percentage increase in pain threshold ([2]; 40 mg/kg S.c.): 172.27 ** %
COc1ccccc1N1CCN([C@@H](C)[C@H](O)c2ccc3c(c2)CC(=O)N3)CC1 (racemic) [IV-1, (1RS,2SR)-5-(1-hydroxy-2-(4-(2-methoxyphenyl)piperazin-1-yl)propyl)indolin-2-one] | 92.92 ** % | 74.34 * % | 89.38 ** % | inhibition at 10 µM [3]: 5.3 ± 0.1%; inhibition at 10 µM [4]: 7.6 ± 0.8%; inhibition at 10 µM [5]: 0%
COc1ccccc1N1CCN([C@H](C)[C@H](O)c2ccc3c(c2)CC(=O)N3)CC1 (racemic) [IV-2, (1RS,2RS)-5-(1-hydroxy-2-(4-(2-methoxyphenyl)piperazin-1-yl)propyl)indolin-2-one] | 98.23 ** % | 97.35 ** % | 93.81 ** % | 
CC(=O)Oc1ccccc1C(=O)O [Aspirin, reference compound] |  |  |  | Inhibition percentage of writhing response ([1]; positive control aspirin 200 mg/kg oral): 95.05 ** %
COc1ccccc1N1CCN([C@@H](C)[C@H](O)c2ccccc2)CC1 [II-1, (1R,2S)-1-phenyl-2-(4-(2-methoxyphenyl)piperazinyl)-propan-1-ol] | 30.09% | 47.79 * % | 58.41 * % | 
COc1ccccc1N1CCN([C@@H](C)[C@@H](O)c2ccccc2)CC1 [II-2, (1S,2S)-1-phenyl-2-(4-(2-methoxyphenyl)piperazinyl)-propan-1-ol] | 69.91 * % | 71.48 * % | 74.34 ** % | inhibition at 10 µM [3]: 36.5 ± 1.6%; inhibition at 10 µM [4]: 5.3 ± 0.9%; inhibition at 10 µM [5]: 12.8 ± 0.8%
COc1ccccc1N1CCN([C@H](C)[C@@H](O)c2ccccc2)CC1 [III-1, (1S,2R)-1-phenyl-2-(4-(2-methoxyphenyl)piperazinyl)-propan-1-ol] | 69.28 ** % | 55.56 * % | 67.32 ** % | 
COc1ccccc1N1CCN([C@H](C)[C@H](O)c2ccccc2)CC1 [III-2, (1R,2R)-1-phenyl-2-(4-(2-methoxyphenyl)piperazinyl)-propan-1-ol] | 64.05 ** % | 76.47 ** % | 86.27 ** % | Percentage increase in pain threshold ([2]; 10 mg/kg S.c.): 72.91%; Percentage increase in pain threshold ([2]; 20 mg/kg S.c.): 133.48 * %; Percentage increase in pain threshold ([2]; 40 mg/kg S.c.): 151.86 * %; inhibition at 10 µM [3]: 40 ± 0.6%; inhibition at 10 µM [4]: 25.1 ± 1.3%; inhibition at 10 µM [5]: 16.8 ± 2.3%
CN1CC[C@]23c4c5ccc(O)c4O[C@H]2[C@@H](O)C=C[C@H]3[C@H]1C5 [morphine, reference compound] |  |  |  | Percentage increase in pain threshold ([2]; positive control morphine 2 mg/kg S.c.): 202.5 ** %
